Measured values taken from the NIST ThermoML archive (doi:10.1016/j.jct.2013.06.020).

Experiment: mn = molality of the nth substance listed, in mol/kg
Conditions: 298.15 K, 101 kPa, Liquid; for speed of sound: Sing-around technique in a fixed-path interferometer; for mass density: Vibrating tube method

O=Cc1ccco1 [2-furaldehyde] + O
Conditions | mass density [kg/m3] | speed of sound [m/s]
m1 = 0.0542 | 998.113 | 1499.1
m1 = 0.0556 | 998.137 | 1499.2
m1 = 0.0607 | 998.217 | 1499.4
m1 = 0.0653 | 998.295 | 1499.6
m1 = 0.0686 | 998.351 | 1499.7
m1 = 0.075 | 998.453 | 1500
m1 = 0.0801 | 998.537 | 1500.2
m1 = 0.089 | 998.69 | 1500.6
m1 = 0.1095 | 999.037 | 1501.4
m1 = 0.1179 | 999.174 | 1501.8
m1 = 0.1332 | 999.425 | 1502.3
m1 = 0.1717 | 1000.07 | 1504
m1 = 0.2053 | 1000.62 | 1505.3
m1 = 0.2309 | 1001.03 | 1506.1
m1 = 0.3092 | 1002.32 | 1508.9
m1 = 0.3436 | 1002.87 | 1510
m1 = 0.4132 | 1003.97 | 1512.3
m1 = 0.5112 | 1005.51 | 1515.2
m1 = 0.5559 | 1006.19 | 1516.5
m1 = 0.6557 | 1007.7 | 1518.7
m1 = 0.8368 | 1010.35 | 1522
m1 = 0.9225 | 1011.55 | 1523.5

C=CC(=O)OC [methyl propenoate] + O
Conditions | mass density [kg/m3] | speed of sound [m/s]
m1 = 0.0393 | 997.315 | 1498.3
m1 = 0.0445 | 997.337 | 1498.7
m1 = 0.0475 | 997.348 | 1498.9
m1 = 0.0543 | 997.381 | 1499.1
m1 = 0.0631 | 997.409 | 1499.5
m1 = 0.0712 | 997.451 | 1499.9
m1 = 0.0962 | 997.547 | 1500.9
m1 = 0.1341 | 997.677 | 1502.1
m1 = 0.1473 | 997.72 | 1502.6
m1 = 0.1826 | 997.809 | 1503.8
m1 = 0.2485 | 998.068 | 1506.2
m1 = 0.3666 | 998.512 | 1510.6
m1 = 0.4288 | 998.73 | 1513.1
m1 = 0.5131 | 999.004 | 1516.7

OCC1CCCO1 (stereo unspecified) [2-tetrahydrofurylmethanol] + O
Conditions | mass density [kg/m3] | speed of sound [m/s]
m1 = 0.0115 | 997.245 | 1497.2
m1 = 0.0127 | 997.265 | 1497.4
m1 = 0.0141 | 997.289 | 1497.6
m1 = 0.0149 | 997.301 | 1497.7
m1 = 0.0183 | 997.356 | 1498.1
m1 = 0.0193 | 997.373 | 1498.2
m1 = 0.0223 | 997.421 | 1498.4
m1 = 0.0281 | 997.511 | 1498.5
m1 = 0.0286 | 997.518 | 1498.5
m1 = 0.0337 | 997.596 | 1498.7
m1 = 0.0441 | 997.835 | 1499.3
m1 = 0.0462 | 997.862 | 1499.5
m1 = 0.0496 | 997.893 | 1499.6
m1 = 0.0584 | 998.028 | 1500.3
m1 = 0.0686 | 998.155 | 1500.9
m1 = 0.0731 | 998.209 | 1501.1
m1 = 0.0948 | 998.467 | 1502.4
m1 = 0.1082 | 998.66 | 1503.2
m1 = 0.1478 | 999.071 | 1505.6
m1 = 0.2077 | 999.663 | 1509
m1 = 0.2552 | 1000.11 | 1511.8
m1 = 0.35 | 1000.98 | 1517.1
m1 = 0.4904 | 1002.2 | 1524.9
m1 = 0.678 | 1003.77 | 1534.7
m1 = 1.16 | 1007.55 | 1557.2
m1 = 1.996 | 1013.36 | 1589.1
m1 = 2.959 | 1020.27 | 1614.9
m1 = 3.175 | 1021.74 | 1620.8
m1 = 3.559 | 1024.37 | 1630.1
m1 = 5.556 | 1036.45 | 1672.3

COC(=O)C(C)O (stereo unspecified) [methyl 2-hydroxypropanoate] + O
Conditions | mass density [kg/m3] | speed of sound [m/s]
m1 = 0.0487 | 997.862 | 1499
m1 = 0.0568 | 997.968 | 1499.5
m1 = 0.0707 | 998.157 | 1500.4
m1 = 0.0956 | 998.501 | 1501.2
m1 = 0.1039 | 998.614 | 1501.6
m1 = 0.1117 | 998.722 | 1502
m1 = 0.1338 | 999.035 | 1503.1
m1 = 0.1539 | 999.294 | 1504
m1 = 0.223 | 1000.24 | 1507.8
m1 = 0.3212 | 1001.55 | 1511.7
m1 = 0.484 | 1003.64 | 1518.2
m1 = 0.7855 | 1007.52 | 1529
m1 = 0.9699 | 1009.78 | 1535.3
m1 = 1.168 | 1012.12 | 1542.1
m1 = 1.377 | 1014.5 | 1548.7
m1 = 1.56 | 1016.48 | 1554.2
m1 = 1.776 | 1018.7 | 1561.9
m1 = 1.938 | 1020.4 | 1566.9
m1 = 2.237 | 1023.27 | 1575.8
m1 = 2.632 | 1026.82 | 1588.2
m1 = 2.941 | 1029.45 | 1597
m1 = 3.322 | 1032.46 | 1606.5
m1 = 3.906 | 1036.62 | 1617.2

OCc1ccco1 [2-hydroxymethylfuran] + O
Conditions | mass density [kg/m3] | speed of sound [m/s]
m1 = 0.0475 | 997.854 | 1498.9
m1 = 0.0537 | 997.937 | 1499.3
m1 = 0.0559 | 997.967 | 1499.4
m1 = 0.0625 | 998.054 | 1499.7
m1 = 0.0688 | 998.143 | 1500
m1 = 0.0781 | 998.269 | 1500.3
m1 = 0.0999 | 998.571 | 1501.3
m1 = 0.1027 | 998.607 | 1501.5
m1 = 0.12 | 998.847 | 1502.2
m1 = 0.1433 | 999.158 | 1503.3
m1 = 0.1651 | 999.552 | 1504.3
m1 = 0.2327 | 1000.39 | 1507.1
m1 = 0.2468 | 1000.58 | 1507.8
m1 = 0.4458 | 1003.25 | 1515.9
m1 = 0.618 | 1005.5 | 1522.3
m1 = 0.8613 | 1008.56 | 1530.4
m1 = 1.054 | 1010.95 | 1535.9
m1 = 1.236 | 1012.93 | 1540.5
m1 = 1.441 | 1015.25 | 1545.5
m1 = 1.656 | 1017.56 | 1550
m1 = 1.835 | 1019.32 | 1554
m1 = 2.062 | 1021.73 | 1559.4
m1 = 2.545 | 1026.13 | 1569.5
m1 = 2.874 | 1028.8 | 1577.2
